Assays:
hERG [1] = biological target: T1, hERG (Homo sapiens, UniProt Q12809); test: whole-cell patch clamp, IKr current; type: cell-based; conditions: test concentrations 0.3 to 30 µM; HEK cells stably transfected
in vitro [2] = conditions: mouse, liver microsomes
hERG [3] = biological target: T1, hERG; test: in vitro; conditions: HEK
hERG [4] = biological target: T1, hERG; test: in vitro; conditions: HEK; remark: listed apart in the source
hALOX12B = biological target: T2, hALOX12B (Homo sapiens, UniProt O75342); test: biochemical; conditions: read-out: % inhibition of ALOX12B enzyme activity
T2 sequence (O75342 1-701): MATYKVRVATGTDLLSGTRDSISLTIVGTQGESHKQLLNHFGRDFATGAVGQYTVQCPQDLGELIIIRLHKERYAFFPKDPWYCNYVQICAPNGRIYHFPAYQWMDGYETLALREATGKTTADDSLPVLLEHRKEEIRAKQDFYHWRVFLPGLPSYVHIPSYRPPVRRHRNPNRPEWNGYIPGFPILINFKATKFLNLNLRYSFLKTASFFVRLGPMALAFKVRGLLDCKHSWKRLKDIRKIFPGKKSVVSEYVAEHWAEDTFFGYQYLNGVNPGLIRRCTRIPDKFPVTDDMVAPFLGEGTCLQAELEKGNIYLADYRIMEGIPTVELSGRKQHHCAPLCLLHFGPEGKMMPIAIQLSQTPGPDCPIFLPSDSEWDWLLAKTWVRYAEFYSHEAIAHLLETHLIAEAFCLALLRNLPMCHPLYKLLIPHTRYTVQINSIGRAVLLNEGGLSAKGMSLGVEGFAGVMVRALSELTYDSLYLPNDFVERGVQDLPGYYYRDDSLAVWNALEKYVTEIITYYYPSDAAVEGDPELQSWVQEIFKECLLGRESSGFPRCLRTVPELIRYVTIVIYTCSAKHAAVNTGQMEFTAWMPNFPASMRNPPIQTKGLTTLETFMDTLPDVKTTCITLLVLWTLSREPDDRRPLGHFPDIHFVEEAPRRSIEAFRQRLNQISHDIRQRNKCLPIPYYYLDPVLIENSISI

in vitro [5] = conditions: mouse, liver microsomes; remark: listed apart in the source

T1 sequence (Q12809 whole entry): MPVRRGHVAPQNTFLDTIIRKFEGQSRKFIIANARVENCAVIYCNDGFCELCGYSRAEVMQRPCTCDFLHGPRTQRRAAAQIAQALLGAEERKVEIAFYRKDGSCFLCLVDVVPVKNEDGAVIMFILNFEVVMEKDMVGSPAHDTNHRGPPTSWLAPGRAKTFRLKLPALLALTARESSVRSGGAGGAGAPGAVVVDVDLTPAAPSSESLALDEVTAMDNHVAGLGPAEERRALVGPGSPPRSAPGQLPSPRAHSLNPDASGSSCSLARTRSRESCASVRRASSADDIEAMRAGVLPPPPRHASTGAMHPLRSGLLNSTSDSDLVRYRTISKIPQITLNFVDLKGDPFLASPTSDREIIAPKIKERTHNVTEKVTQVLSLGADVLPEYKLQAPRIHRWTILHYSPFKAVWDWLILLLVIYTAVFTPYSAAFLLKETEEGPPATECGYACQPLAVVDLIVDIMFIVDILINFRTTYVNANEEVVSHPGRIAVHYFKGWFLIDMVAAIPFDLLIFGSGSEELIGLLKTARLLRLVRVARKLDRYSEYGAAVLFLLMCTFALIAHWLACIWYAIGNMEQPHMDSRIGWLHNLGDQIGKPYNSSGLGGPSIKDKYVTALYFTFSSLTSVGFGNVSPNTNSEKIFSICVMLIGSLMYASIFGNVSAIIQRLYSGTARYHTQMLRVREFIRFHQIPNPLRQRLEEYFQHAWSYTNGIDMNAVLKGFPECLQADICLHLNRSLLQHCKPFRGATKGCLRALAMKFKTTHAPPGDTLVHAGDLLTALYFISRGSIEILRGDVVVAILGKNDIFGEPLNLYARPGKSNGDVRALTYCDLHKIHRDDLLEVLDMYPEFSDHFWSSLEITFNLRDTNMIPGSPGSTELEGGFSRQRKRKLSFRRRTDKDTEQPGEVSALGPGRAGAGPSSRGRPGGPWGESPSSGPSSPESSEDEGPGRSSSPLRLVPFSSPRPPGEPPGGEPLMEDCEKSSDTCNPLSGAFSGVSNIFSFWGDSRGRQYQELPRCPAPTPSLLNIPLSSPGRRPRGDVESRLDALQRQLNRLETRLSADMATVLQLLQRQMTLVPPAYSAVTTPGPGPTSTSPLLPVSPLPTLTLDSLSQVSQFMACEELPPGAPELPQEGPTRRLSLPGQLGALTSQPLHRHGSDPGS

SMILES	% reduction of hERG current at 0.3 to 30 μM (hERG [1])	half-life at 5 µM (in vitro [2])	inhibition at 0.1 µM (hERG [3])	inhibition at 0.3 µM (hERG [4])	inhibition at 1 µM (hERG [4])	inhibition at 3 µM (hERG [4])	inhibition at 10 µM (hERG [4])	inhibition at 30 µM (hERG [4])	inhibition at 10 µM (hALOX12B)	inhibition at 100 µM (hALOX12B)	inhibition at 200 µM (hALOX12B)	microsomal CLint at 5 µM (in vitro [5])
Nc1ccc(O)cc1-c1cc(=O)c2ccccc2o1 [6a]	9-14%	–	–	–	–	–	–	–	–	–	–	–
Nc1ccc(O)cc1-c1cc(=O)c2ccccc2o1 [6a, 2-(2-amino-5-hydroxyphenyl)-4H-chromen-4-one]	–	495 min	-8.53%	13.3%	14.1%	10.6%	10.9%	9.05%	~23%	~40%	~52%	5.6 µL/min/mg
